This assay deals with Pityrosporum ovale from the Institut Pasteur, reference CIP 1363.82. In words: Antifungal activity by the MIC (Minimum Inhibitory Concentration) method. It counts as cell-based. The note with it: each compound at the concentration MIC/2; Sabouraud+Tween 40+glyceryl monooleate agar medium, 48 hours at 30° C. As for the experimental part: The activity of the combination of compound (A) and compound (B) was determined by a conventional method known as the MIC (Minimum Inhibitory Concentration), the MIC corresponding to the concentration at which a given […] inhibits the growth of a given strain under defined conditions.
In this instance, strains of Pityrosporum ovale from the Institut Pasteur, reference CIP 1363.82, were used.
An inoculum of a fresh culture, of 1 to 10×10^7 cells/ml, is introduced into a Sabouraud+Tween 40 at 10 g/l+glyceryl monooleate at 2.5 g/l agar medium, in the presence or absence of the compound or of the combination of the compounds to be studied, and incubated for 48 hours at 30° C.

For `CCCCNC(=O)OCC#CI` [Compound A, 3-iodo-2-propynyl butyl carbamate], the “growth of the microorganism” value is “identical to that of the control medium”.

As to `CCCCC(CC)COCC(O)CO` (centres unmarked) [Compound B, 3-(2-ethylhexyloxy)-1,2-propanediol], the “growth of the microorganism” value was “identical to that of the control medium”.

These data come from patent US6759051B2, “Cosmetic or dermatological composition comprising at least one alkynyl carbamate and at least one polyol” (L'Oreal, priority 1998, dated 2004).
